Measurements: patent US7271260B2, “3,4-dihydroquinazoline derivatives as T-type calcium channel blockers and method of preparing the same” (Korea Institute of Science and Technology, priority 2004, dated 2007)

Legend:
[1] = tested on: N-type (HVA) Ca2+ channel; test: Patch clamp of high voltage-activated calcium current in MPG (major pelvic ganglion) neurons; assay type: cell-based, rat; details: 10 μM; for selectivity for the sub-types of the calcium channel (T-type LVA vs N-type HVA): from Table 3; for Inhibitory effect, Ca2+ channel N-type (HVA): MPG neuron, n.i. = no inhibitory effect
Protocol: In order to examine the selectivity of the compound of the present invention for other ion channels, the inhibitory effects of KYS05001, KYS05041 and KYS05042 on […] and high voltage-activated Ca2+ channel (HVA) were measured according to a conventional method (Lee, J.-H. et al., J. Neurophysiol. 2002, 87, 2844-2850) using MPG (major pelvic ganglion).
Male Sprague-Dawley rats having about 250 g of an average body weight were employed as experimental animals. After the rats were anesthetized with sodium pentobarbital (50 mg/kg, i.p.), the abdomen was cut open immediately. MPG located on the left side of the prostate was extracted and then transferred in cold (4° C.) Hank's balanced salt solution (HBSS, GibcoBRL). The connective tissue encompassing the ganglion was stripped therefrom and a small gap was made carefully on the naked ganglion with a sharp knife. Then, the ganglion was cultured in 10 ml of modified Earle's balanced salt solution (EBSS, pH 7.4, GibcoBRL) supplemented with 0.7 mg/ml of collagenase (type D), 0.3 mg/ml of trypsin and 0.1 mg/ml of DNAse type I at 35° C. for 1 hour (Zhu et al., J. Physiol. Lond. 1995, 489, 363-375). At this time, 3.6 g/l of glucose and 10 mM HEPES were added to EBSS. After the cultivation was completed, the culture flask was shaken to separate call clusters into a single nerve cell and subjected to centrifugation at 1000 rpm with a clinical centrifuge (International Equipment Company, Mass., U.S.A.). The separated single nerve cells were re-suspended in MEM (GibcoBRL) supplemented with 10% fetal bovine serum, 1% glutamine and 1% penicillin/streptomycin. They were then spread on a polystyrene culture dish (35 mm) coated with poly-L-lysine. The culture dish was incubated at 37° C. humidified incubator (95% air-5% CO2) and the cells were used in the following experiment within 24 hours after the separation.
The voltage-dependent calcium and sodium current were recorded according to a typical patch clamping method using a patch clamp amplifier (Axopatch 1D, Axon Instruments, Foster City, Calif., U.S.A.) at a whole-cell ruptured configuration (Hamill et al., Pflügers Arch. 1981, 391, 85-100). An electrode was made from a borosilicate glass capillary tube (outer diameter; 1.65 mm, inner diameter; 1.2 mm, Corning 7052, Garner Glass Co., Claremont, Calif., U.S.A.) using P-97 Flaming-Brown micropipette puller (Sutter Instrument Co., Novato, Calif., U.S.A.) and forged smoothly by heating with a microforge. The electrode showing 1˜3 MΩ of resistance when filled with a solution was used for the following experiment. The culture dish containing the nerve cells was placed on an inverted microscope and the cell exterior solution was flowed into the dish at a flow rate of about 1˜2 ml/min. The membrane capacitance and series resistance were corrected by 80% or more with an amplifier. The voltage generation and record of calcium current were carried out using S4 software (provided by Dr. Stephen R. Ikeda, National Institute on Alcohol Abuse and Alcoholism, NIH, USA) equipped in Macintosh computer, which was connected to an analogue/digital converter (Digidata 1200, Axon Instruments Co.). The calcium current, which passed through a low band pass filter at 2˜5 kHz, was stored in Macintosh computer and analyzed with IGOR PRO (Wave-Metrics, Lake Oswego, Oreg., U.S.A.). All the experiments were conducted at a room temperature ranging from 20 to 22° C.
The electrode for measuring the calcium current was filled with the solution comprising 120 mM N-methyl-D-glucamine (NMG) methanesulfonate (MS), 20 mM tetraethylammonium (TEA)-MS, 20 mM HCl, 11 mM EGTA, 10 mM HEPES, 1 mM CaCl2, 4 mM MgATP, 0.3 mM Na2GTP and 14 mM tris-phosphocreatine (pH 7.2, 290 mOsm). The extracellular infusion fluid was composed of 140 mM MS, 145 mM TEA-OH, 10 mM HEPES, 15 mM glucose, 10 mM CaCl2 and 0.0003 mM tetrodotoxin (TTX, pH 7.4, 320 mOsm). […]

[2] = target: T1, T-type calcium channel α1H (Cav3.2) (Homo sapiens, UniProt O95180); test: Two-electrode voltage clamp on Xenopus unfertilized oocytes expressing α1H T-type calcium channel; assay type: cell-based; details: test potential -20 mV from -90 mV, read-out: inhibitory effect (blocking percentage), Xenopus oocyte (α1H) at 100 μM
T1 construct: expressed in transfected cells; host or cells: Xenopus laevis unfertilized oocytes injected with cRNA (pGEM-HEA linearised with AflII, T7 transcription)
T1 sequence (O95180 whole entry): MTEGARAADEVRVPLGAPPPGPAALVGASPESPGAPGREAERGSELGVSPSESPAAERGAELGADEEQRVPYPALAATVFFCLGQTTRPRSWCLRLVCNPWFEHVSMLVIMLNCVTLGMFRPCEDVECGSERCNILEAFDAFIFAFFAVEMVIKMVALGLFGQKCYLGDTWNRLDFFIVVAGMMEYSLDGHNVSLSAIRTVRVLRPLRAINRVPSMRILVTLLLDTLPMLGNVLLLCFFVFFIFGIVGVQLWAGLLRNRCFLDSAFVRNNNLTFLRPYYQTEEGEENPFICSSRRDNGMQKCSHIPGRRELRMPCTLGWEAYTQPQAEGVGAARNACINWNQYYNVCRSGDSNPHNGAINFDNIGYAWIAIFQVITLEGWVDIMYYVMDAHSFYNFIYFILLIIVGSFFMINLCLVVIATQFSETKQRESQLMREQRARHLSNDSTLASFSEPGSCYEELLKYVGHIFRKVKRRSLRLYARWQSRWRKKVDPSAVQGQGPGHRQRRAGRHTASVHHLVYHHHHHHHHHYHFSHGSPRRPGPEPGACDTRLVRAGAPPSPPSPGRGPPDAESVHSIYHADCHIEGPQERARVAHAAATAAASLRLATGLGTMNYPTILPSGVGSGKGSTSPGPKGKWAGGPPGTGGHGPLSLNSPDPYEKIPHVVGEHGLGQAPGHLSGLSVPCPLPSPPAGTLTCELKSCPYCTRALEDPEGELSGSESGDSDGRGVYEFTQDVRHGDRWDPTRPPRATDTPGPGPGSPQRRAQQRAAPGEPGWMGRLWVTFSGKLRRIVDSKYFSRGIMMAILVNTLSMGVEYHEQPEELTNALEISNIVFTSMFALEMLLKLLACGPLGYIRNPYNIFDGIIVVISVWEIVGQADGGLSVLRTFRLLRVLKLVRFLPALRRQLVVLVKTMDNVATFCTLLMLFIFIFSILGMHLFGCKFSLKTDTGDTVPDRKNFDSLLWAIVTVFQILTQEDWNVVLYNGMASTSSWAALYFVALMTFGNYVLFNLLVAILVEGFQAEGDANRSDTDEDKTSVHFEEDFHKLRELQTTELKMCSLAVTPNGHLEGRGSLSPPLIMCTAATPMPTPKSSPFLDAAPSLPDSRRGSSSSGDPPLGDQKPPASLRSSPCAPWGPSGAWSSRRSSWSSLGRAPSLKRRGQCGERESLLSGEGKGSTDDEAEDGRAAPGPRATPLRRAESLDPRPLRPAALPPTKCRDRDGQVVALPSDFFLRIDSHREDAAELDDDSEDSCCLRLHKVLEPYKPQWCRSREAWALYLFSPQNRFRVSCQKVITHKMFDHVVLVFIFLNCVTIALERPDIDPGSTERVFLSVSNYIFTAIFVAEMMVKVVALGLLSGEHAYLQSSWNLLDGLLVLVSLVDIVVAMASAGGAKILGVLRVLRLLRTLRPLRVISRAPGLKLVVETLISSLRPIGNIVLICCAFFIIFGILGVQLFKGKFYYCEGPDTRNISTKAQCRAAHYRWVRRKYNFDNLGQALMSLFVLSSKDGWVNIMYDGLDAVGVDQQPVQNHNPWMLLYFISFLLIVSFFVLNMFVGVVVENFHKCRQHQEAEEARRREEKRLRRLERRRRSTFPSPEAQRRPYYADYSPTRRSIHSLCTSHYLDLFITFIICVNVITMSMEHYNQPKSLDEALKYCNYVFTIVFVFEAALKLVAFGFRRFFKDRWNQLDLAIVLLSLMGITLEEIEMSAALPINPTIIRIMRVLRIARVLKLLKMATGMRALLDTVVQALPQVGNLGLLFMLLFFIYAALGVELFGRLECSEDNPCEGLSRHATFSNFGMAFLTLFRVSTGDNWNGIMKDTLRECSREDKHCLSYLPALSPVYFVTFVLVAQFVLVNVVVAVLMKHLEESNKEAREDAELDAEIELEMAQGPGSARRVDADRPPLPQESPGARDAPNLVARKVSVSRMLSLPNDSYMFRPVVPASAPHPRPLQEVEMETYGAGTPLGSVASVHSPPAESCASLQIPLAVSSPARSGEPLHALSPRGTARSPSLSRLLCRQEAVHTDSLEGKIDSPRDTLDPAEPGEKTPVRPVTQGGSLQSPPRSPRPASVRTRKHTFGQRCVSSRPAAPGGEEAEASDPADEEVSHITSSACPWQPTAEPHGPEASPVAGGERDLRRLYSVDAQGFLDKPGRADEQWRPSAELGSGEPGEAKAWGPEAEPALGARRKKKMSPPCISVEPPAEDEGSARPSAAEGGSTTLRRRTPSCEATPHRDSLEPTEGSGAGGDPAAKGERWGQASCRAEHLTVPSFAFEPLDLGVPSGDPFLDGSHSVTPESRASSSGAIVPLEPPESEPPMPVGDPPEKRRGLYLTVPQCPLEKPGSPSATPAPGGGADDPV
Protocol: In order to express a gene encoding T-type calcium channel α1H (Cav3.2) (Cribbs, L. L. et al., Circ. Res., 1998, 83, 103-109) in unfertilized Xenopus oocytes, pGEM-HEA was treated with restriction enzyme AflII to obtain a DNA fragment containing 5′-terminal region having the T-type calcium channel cDNA (AF051946). cRNA having a corresponding sequence to that of the fragment was synthesized using T7 RNA polymerase according to the manufacturer's instructions (mMESSAGE mMACHINE kit, Ambion, Austin, U.S.A.). The synthesized cRNA was quantified by measuring the O.D. value with a spectrophotometer. At this time, unfertilized oocytes were prepared from female Xenopus laevis (Xenopus I, U.S.A.) according to the following method. After the frog's abdomen was incised by about 1 cm, three to four lobes were detached therefrom with scissors and separated into small pieces to which several oocytes were attached. The small pieces were hydrolyzed in OR solution (82.5 mM NaCl, 2.5 mM KCl, 1 mM MgCl2, 5 mM HEPES, pH 7.6) and supplemented with collagenase type IA (Sigma, U.S.A.) to remove defolliculation. After selecting healthy oocytes with a dissecting microscope, they were soaked in SOS solution (100 mM NaCl, 2 mM KCl, 1.8 mM CaCl2, 1 mM MgCl2, 5 mM HEPES, 2.5 mM pyruvate, […] gentamicin, pH 7.6) for 3 to 4 hours to revitalize them. 2 to 5 ng of cRNA was injected into each oocyte using Nano-injector. The oocytes were subjected to a test in order to examine the electrical properties of the channel expressed therefrom 4 to 5 days after the injection while being maintained at 18° C.
The current of the calcium channel expressed from the Xenopus unfertilized oocytes was measured according to a two-electrode voltage clamping method. The current was measured in 10 mM Ba^2+ solution (10 mM Ba(OH)2, 90 mM NaOH, 1 mM KCl, 0.1 mM EDTA, 5 mM HEPES, pH was adjusted to 7.4 with methanesulfonic acid). At this time, the voltage clamp and current measurement were regulated with an amplifier for unfertilized oocytes (Model OC-725C, Warner Instrument Corp., U.S.A.), and analog signals were converted into digital signals using Digidata 2000A (Analog-Digital converter, Axon Instrument). The acquisition, storage and analysis of all data were recorded in Pentium IV computer via pCLAMP8. The data were mainly collected at 5 KHz and filtered at 1 KHz (Model 902 filter; Frequency devices located at Harverhill, Mass., U.S.A.). The T-type current was generated by imposing test electric potential of −20 mV every 15 seconds on the unfertilized oocytes, the potential of which was fixed at −90 mV. A blocking percentage was calculated by comparing the […] before and after the drug treatment.

| Compound | selectivity for the sub-types of the calcium channel (T-type LVA vs N-type HVA) [1] | Inhibitory effect, Ca2+ channel N-type (HVA) [1] | inhibition at 100 µM [2] [%] |
| --- | --- | --- | --- |
| O=C(CC1c2ccccc2N=C(N2CCCCC2)N1c1ccccc1)NCc1ccccc1 (stereo not drawn) [KYS05001] | selectively inhibited only the T-type (LVA) calcium channel | n.i.^b | 77 |
| Cc1ccc(S(=O)(=O)Nc2ccc(CNC(=O)CC3c4ccccc4N=C(N4CCCCC4)N3c3ccccc3)cc2)cc1 (stereo not drawn) [KYS05041, 4-{N-[4-(4-methylbenzenesulfonylamido)benzyl]acetamido}-3-phenyl-2-(piperidine-1-yl)-3,4-dihydroquinazoline] | relatively lower selectivity | >89% | 84.7 |
| O=C(CC1c2ccccc2N=C(N2CCCCC2)N1c1ccccc1)NCc1ccc(NS(=O)(=O)c2ccc(F)cc2)cc1 (stereo not drawn) [KYS05042, 4-{N-[4-(4-fluorobenzenesulfonylamido)benzyl]acetamido}-3-phenyl-2-(piperidine-1-yl)-3,4-dihydroquinazoline] | relatively lower selectivity | >90% | 80.5 |
